{
  "source": "paper PMC8279409",
  "about": "“Novel Mixed NOP/Opioid Receptor Peptide Agonists” (Journal of Medicinal Chemistry, 2021)",
  "key": {"human mu receptor": {"biological_target": "T1, human mu receptor (Homo sapiens, UniProt P35372)", "T1 construct": "expressed in transfected cells; host or cells: CHO cells stably coexpressing the receptor and chimeric Gαqi5", "T1 sequence (P35372 whole entry)": "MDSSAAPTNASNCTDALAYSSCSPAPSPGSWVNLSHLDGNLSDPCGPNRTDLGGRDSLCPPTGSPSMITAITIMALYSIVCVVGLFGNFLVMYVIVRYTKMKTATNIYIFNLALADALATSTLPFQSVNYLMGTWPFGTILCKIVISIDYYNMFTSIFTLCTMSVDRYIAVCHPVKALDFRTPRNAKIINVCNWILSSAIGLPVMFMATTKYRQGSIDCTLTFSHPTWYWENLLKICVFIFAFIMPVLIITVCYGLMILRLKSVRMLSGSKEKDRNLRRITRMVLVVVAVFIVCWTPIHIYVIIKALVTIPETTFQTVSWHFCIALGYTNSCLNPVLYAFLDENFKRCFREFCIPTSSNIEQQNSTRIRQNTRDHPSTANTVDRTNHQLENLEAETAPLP", "assay": "Calcium mobilization, mu opioid receptor", "type": "cell-based", "conditions": "for Emax / activation at 10 µM: percent over the baseline fluorescence, SEM; for Emax: mean ± SEM of at least three experiments in duplicate; for mu pEC50 (CL95%): CHO cells coexpressing human mu receptor and Gαqi5, Fluo-4 AM, 37 °C, mean of at least three experiments in duplicate, CL95% in brackets; for pEC50_mu: molecular formula strings CSV, repeats calcium mobilization values of Tables 1-3; for activation at 10 µM: read-out: mu effect at 10 μM (crc incomplete), Table 2 series, mean ± SEM"}, "human NOP receptor": {"biological_target": "T2, human NOP receptor (Homo sapiens, UniProt P41146)", "T2 construct": "expressed in transfected cells; host or cells: CHO cells stably coexpressing the receptor and chimeric Gαqi5", "T2 sequence (P41146 whole entry)": "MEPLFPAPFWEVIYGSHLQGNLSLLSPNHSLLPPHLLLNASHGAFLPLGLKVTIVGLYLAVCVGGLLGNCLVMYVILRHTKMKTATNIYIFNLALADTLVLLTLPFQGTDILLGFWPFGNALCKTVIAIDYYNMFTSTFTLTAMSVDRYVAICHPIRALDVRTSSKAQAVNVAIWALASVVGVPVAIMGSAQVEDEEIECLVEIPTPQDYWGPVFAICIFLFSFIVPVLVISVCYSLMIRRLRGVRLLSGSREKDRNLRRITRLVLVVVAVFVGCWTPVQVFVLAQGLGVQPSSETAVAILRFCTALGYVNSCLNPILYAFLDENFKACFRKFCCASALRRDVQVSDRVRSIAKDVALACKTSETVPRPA", "assay": "Calcium mobilization, NOP receptor", "type": "cell-based", "conditions": "for Emax: mean ± SEM of at least three experiments in duplicate, SEM; for NOP pEC50 (CL95%): CHO cells coexpressing human NOP and Gαqi5, Fluo-4 AM, 37 °C, mean of at least three experiments in duplicate, CL95% in brackets; for NOP/mu CR (concentration ratio): calcium mobilization, NOP versus mu", "description": "CHO cells stably coexpressing the human NOP or kappa or the mu receptor and the C-terminally modified Gαqi5 and CHO cells coexpressing the delta receptor and the GαqG66Di5 protein were generated and cultured as described previously.[45],[46] Cells were maintained in Dulbecco’s modified Eagle’s medium/nutrient mixture F-12 (DEMEM/F-12) supplemented with 10% FBS, 100 U/mL penicillin and 100 μg/mL streptomycin, 100 μg/mL hygromicin B, and 200 μg/mL G418 and cultured at 37 °C in 5% CO2 humidified air. Cells were seeded at a density of 50,000 cells/well into 96-well black, clear-bottom plates. The following day, the cells were incubated with Hanks’ balanced salt solution (HBSS) supplemented with 2.5 mM probenecid, 3 μM of the calcium-sensitive fluorescent dye Fluo-4 AM, and 0.01% pluronic acid for 30 min at 37 °C. After that time, the loading solution was aspirated and 100 μL/well of HBSS supplemented with 20 mM HEPES, 2.5 mM probenecid, and 500 μM brilliant black was added. Serial dilutions were carried out in HBSS/HEPES (20 mM) buffer (containing 0.02% BSA fraction V). After placing both plates (cell culture and master plate) into the fluorometric imaging plate reader FlexStation II (Molecular Devices, Sunnyvale, CA), fluorescence changes were measured. On-line additions were carried out in a volume of 50 μL/well. To facilitate drug diffusion into the wells, the present studies were performed at 37 °C. Maximum change in fluorescence, expressed as percent over the baseline fluorescence, was used to determine agonist response.\nThe pharmacological terminology adopted in this paper is consistent with IUPHAR recommendations.[59] All data are expressed as the mean ± standard error of the mean (SEM) of at least three experiments performed in duplicate. […] Concentration-response curves to agonists were fitted to the classical four-parameter logistic nonlinear regression model:\nEffect = Baseline + (Emax – Baseline)/(1 + 10^(LogEC50 – Log[compound]) × Hillslope). Curve fitting was performed using PRISM 6.0 (GraphPad Software Inc., San Diego)."}, "[1]": {"conditions": "read-out: mu Emax ± S.E.M., Table 3 series"}, "[2]": {"conditions": "read-out: NOP Emax ± S.E.M., Table 3 series, percent over the baseline fluorescence"}, "[3]": {"conditions": "read-out: NOP Emax ± S.E.M., Table 2 series, percent over the baseline fluorescence"}},
  "note": "Like-named read-outs stand apart in the source and are kept apart here. Where a SMILES comes first, the peptide text is derived from it. Where no end group is shown, it is not given here. [ ]: non-standard residue; d: D form. Bip = N[C@@H](Cc1ccc(-c2ccccc2)cc1)C(=O)O; Phe(4-NH2) = Nc1ccc(C[C@H](N)C(=O)O)cc1; Dmt = Cc1cc(O)cc(C)c1C[C@H](N)C(=O)O; hPhe = N[C@@H](CCc1ccccc1)C(=O)O",
  "data": [
    {"compound": "Cc1cc(O)cc(C)c1C[C@H](N)C(=O)NCC(=O)NCC(=O)N[C@@H](Cc1ccccc1)C(=O)N[C@@H](Cc1ccc(N)cc1)C(=O)NCC(=O)N[C@@H](C)C(=O)N[C@@H](CCCNC(=N)N)C(=O)N[C@@H](CCCCN)C(=O)N[C@@H](CO)C(=O)N[C@@H](C)C(=O)N[C@@H](CCCNC(=N)N)C(=O)N[C@@H](CCCCN)C(N)=O", "note": "[Compound 34, [Dmt^1,(pNH2)Phe^5]N/OFQ(1-13)-NH2] (H-[Dmt]GGF[Phe(4-NH2)]GARKSARK-NH2)", "values": [
      {"measurement": "Emax", "setting": "human mu receptor; [1]", "value": "358 ± 15", "unit": "%"},
      {"measurement": "Emax", "setting": "human NOP receptor; [2]", "value": "258 ± 20", "unit": "%"}
    ]},
    {"compound": "YGGFLGARKSARK-NH2 [Compound 11, [Tyr^1,Leu^5]N/OFQ(1-13)-NH2]", "values": [
      {"measurement": "mu pEC50 (CL95%)", "setting": "human mu receptor; Table 1 series", "value": "6.08 (5.95–6.21)"},
      {"measurement": "Emax", "setting": "human mu receptor; read-out: mu Emax ± S.E.M, Table 1 series", "value": "339 ± 25", "unit": "%"},
      {"measurement": "NOP pEC50 (CL95%)", "setting": "human NOP receptor; Table 1 series, FlexStation II", "value": "8.03 (7.46–8.60)"},
      {"measurement": "NOP/mu CR (concentration ratio)", "setting": "human NOP receptor; Table 1 series", "value": 0.01},
      {"measurement": "Emax", "setting": "human NOP receptor; read-out: NOP Emax ± S.E.M., Table 1 series, maximum change in fluorescence as percent over the baseline fluorescence", "value": "339 ± 24", "unit": "%"}
    ]},
    {"compound": "Cc1cc(O)cc(C)c1C[C@H](N)C(=O)NCC(=O)NCC(=O)N[C@@H](Cc1ccccc1)C(=O)N[C@@H](Cc1ccccc1)C(=O)NCC(=O)N[C@@H](C)C(=O)N[C@@H](CCCNC(=N)N)C(=O)N[C@@H](CCCCN)C(=O)N[C@@H](CO)C(=O)N[C@@H](C)C(=O)N[C@@H](CCCNC(=N)N)C(=O)N[C@@H](CCCCN)C(N)=O", "note": "[Compound 31, [Dmt^1,Phe^5]N/OFQ(1-13)-NH2] (H-[Dmt]GGFFGARKSARK-NH2)", "values": [
      {"measurement": "Emax", "setting": "human mu receptor; [1]", "value": "335 ± 22", "unit": "%"},
      {"measurement": "Emax", "setting": "human NOP receptor; [2]", "value": "277 ± 28", "unit": "%"}
    ]},
    {"compound": "C[C@H](NC(=O)CNC(=O)[C@H](CCc1ccccc1)NC(=O)[C@H](Cc1ccccc1)NC(=O)CNC(=O)CNC(=O)[C@@H](N)Cc1ccc(O)cc1)C(=O)N[C@@H](CCCNC(=N)N)C(=O)N[C@@H](CCCCN)C(=O)N[C@@H](CO)C(=O)N[C@@H](C)C(=O)N[C@@H](CCCNC(=N)N)C(=O)N[C@@H](CCCCN)C(N)=O", "note": "[Compound 18, [Tyr^1,hPhe^5]N/OFQ(1-13)-NH2] (H-YGGF[hPhe]GARKSARK-NH2)", "values": [
      {"measurement": "mu pEC50 (CL95%)", "setting": "human mu receptor; Table 2 series", "value": "crc incomplete; 10 μM: 228 ± 29"},
      {"measurement": "pEC50_mu", "setting": "human mu receptor", "value": "crc incomplete"},
      {"measurement": "activation at 10 µM", "setting": "human mu receptor", "value": "228 ± 29", "unit": "%"},
      {"measurement": "NOP pEC50 (CL95%)", "setting": "human NOP receptor; Table 2 series", "value": "8.70 (8.24–9.16)"},
      {"measurement": "NOP/mu CR (concentration ratio)", "setting": "human NOP receptor; Table 2 series", "value": 0.003},
      {"measurement": "Emax", "setting": "human NOP receptor; [3]", "value": "301 ± 26", "unit": "%"}
    ]},
    {"compound": "C[C@H](NC(=O)CNC(=O)[C@H](Cc1ccc(-c2ccccc2)cc1)NC(=O)[C@H](Cc1ccccc1)NC(=O)CNC(=O)CNC(=O)[C@@H](N)Cc1ccc(O)cc1)C(=O)N[C@@H](CCCNC(=N)N)C(=O)N[C@@H](CCCCN)C(=O)N[C@@H](CO)C(=O)N[C@@H](C)C(=O)N[C@@H](CCCNC(=N)N)C(=O)N[C@@H](CCCCN)C(N)=O", "note": "[Compound 24, [Tyr^1,Bip^5]N/OFQ(1-13)-NH2] (H-YGGF[Bip]GARKSARK-NH2)", "values": [
      {"measurement": "mu pEC50 (CL95%)", "setting": "human mu receptor; Table 2 series", "value": "crc incomplete; 10 μM: 151 ± 66"},
      {"measurement": "pEC50_mu", "setting": "human mu receptor", "value": "crc incomplete"},
      {"measurement": "activation at 10 µM", "setting": "human mu receptor", "value": "151 ± 66", "unit": "%"},
      {"measurement": "NOP pEC50 (CL95%)", "setting": "human NOP receptor; Table 2 series", "value": "6.93 (6.63–7.22)"},
      {"measurement": "NOP/mu CR (concentration ratio)", "setting": "human NOP receptor; Table 2 series", "value": 0.15},
      {"measurement": "Emax", "setting": "human NOP receptor; [3]", "value": "272 ± 29", "unit": "%"}
    ]}
  ]
}
